In publication PMC9272005, “Genome-Wide Expression Analysis of Glyoxalase I Genes Under Hyperosmotic Stress and Existence of a Stress-Responsive Mitochondrial Glyoxalase I Activity in Durum Wheat (Triticum durum Desf.)” (Frontiers in Plant Science, 2022):

Molecular target: T1, DWM-GLYI (mitochondrial glyoxalase I)
T1 construct: native activity in Triton X-100-lysed purified mitochondria; isoform not identified
Experiment: spectrophotometric GLYI activity assay ([…] nm) in lysed mitochondria, inhibition kinetics
Type: biochemical, Triticum turgidum subsp. durum

Compound | Ki
COc1cc(/C=C/C(=O)CC(=O)/C=C/c2ccc(O)c(OC)c2)ccc1O [curcumin] | 20 ± 3.5 µM
O=c1c(O)c(-c2ccc(O)c(O)c2)oc2cc(O)cc(O)c12 [quercetin] | 55 ± 7.5 µM
